Laboratory results taken from patent US5091399A, “Antimicrobial compounds and methods of use” (Rohm and Haas Company, priority 1990, dated 1992).
≈ marks a conversion by molar mass, not a printed value.

How the values were obtained:
Assay in all cases: MIC test (biocide), serial dilution in Trypticase Soy Broth
Format in all cases: cell-based
Aspergillus niger = conditions: pH 7.0, starting concentration 500 ppm
Experimental: (§1) Efficacy tests against eight fungi and four bacteria was carried out. A minimum inhibitory concentration (MIC) value was obtained using Trypticase Soy Broth, pH 7.0, and by preparing serial dilutions with a starting concentration of 500 ppm. A stock solution of the test compound was made in dimethyl sulfoxide (DMSO) or acetone. The MIC's of the compounds of this invention against the test organisms are shown in Table 3. |Test was run in Trypticase Soy Broth, pH 7.0 Starting concentration = 500

Aureobasidium pullulans = conditions: pH 7.0, starting concentration 500 ppm
Experimental: as §1

Chaetomium globosum = conditions: pH 7.0, starting concentration 500 ppm
Experimental: as §1

Cladosporium resinae = conditions: Amorphotheca resinae, pH 7.0, starting concentration 500 ppm
Experimental: as §1

Escherichia coli = conditions: pH 7.0, starting concentration 500 ppm
Experimental: as §1

Gleophyllum trabeum = conditions: pH 7.0, starting concentration 500 ppm
Experimental: as §1

Penicillium funiculosum = conditions: Talaromyces funiculosus, pH 7.0, starting concentration 500 ppm
Experimental: as §1

Pseudomonas aeruginosa = conditions: pH 7.0, starting concentration 500 ppm
Experimental: as §1

Pseudomonas fluorescens = conditions: pH 7.0, starting concentration 500 ppm
Experimental: as §1

Rhodotorula rubra = conditions: pH 7.0, starting concentration 500 ppm
Experimental: as §1

Saccharomyces cerevisiae = conditions: pH 7.0, starting concentration 500 ppm
Experimental: as §1

Staphylococcus aureus = conditions: pH 7.0, starting concentration 500 ppm
Experimental: as §1

Chorella = conditions: pH 7.0, starting concentration 500 ppm
Experimental: as §1

Cn1sc(Sc2nc3ccccc3s2)cc1=O [Compound 1, (2-methyl-4-isothiazolin-3-on-5-yl)-(benzothiazol-2'-yl)sulfide]
MIC (Aspergillus niger): 8 µg/mL (≈ 28.5 µM) | MIC (Aureobasidium pullulans): 16 µg/mL (≈ 57.1 µM) | MIC (Chaetomium globosum): 32 µg/mL (≈ 114 µM) | MIC (Cladosporium resinae): 1 µg/mL (≈ 3.57 µM) | MIC (Escherichia coli): 500 µg/mL (≈ 1780 µM) | MIC (Gleophyllum trabeum): < 0.1 µg/mL | MIC (Penicillium funiculosum): 8 µg/mL (≈ 28.5 µM) | MIC (Pseudomonas aeruginosa): > 500 µg/mL | MIC (Pseudomonas fluorescens): 8 µg/mL (≈ 28.5 µM) | MIC (Rhodotorula rubra): 16 µg/mL (≈ 57.1 µM) | MIC (Saccharomyces cerevisiae): 8 µg/mL (≈ 28.5 µM) | MIC (Staphylococcus aureus): 4 µg/mL (≈ 14.3 µM)

CCCCCCCCn1sc(Sc2nc3ccccc3s2)c(Cl)c1=O [Compound 2, [4-chloro-2-(n-octyl)-4-isothiazolin-3-on-5-yl]-(benzothiazol-2'-yl)sulfide]
MIC (Aspergillus niger): 63 µg/mL (≈ 153 µM) | MIC (Aureobasidium pullulans): 32 µg/mL (≈ 77.5 µM) | MIC (Chorella): 4 µg/mL (≈ 9.68 µM) | MIC (Escherichia coli): > 250 µg/mL | MIC (Pseudomonas aeruginosa): > 250 µg/mL | MIC (Staphylococcus aureus): 1 µg/mL (≈ 2.42 µM)

Cc1c(Sc2nc3ccccc3s2)sn(-c2ccc(Cl)cc2)c1=O [Compound 3, [4-methyl-2-(4-chlorophenyl)-4-isothiazolin-3-on-5-yl]-(benzothiazol-2'-yl)sulfide]
MIC (Aspergillus niger): 12.5 µg/mL (≈ 32 µM) | MIC (Pseudomonas aeruginosa): 12.5 µg/mL (≈ 32 µM) | MIC (Pseudomonas fluorescens): 0.4 µg/mL (≈ 1.02 µM)
